In patent US8067424B2, “Selective inhibitors for cyclin-dependent kinases” (Emory University, priority 2007, dated 2011):
Read-outs that look alike come from different tables or passages of the source.

Assays:
Assay type in all cases: biochemical
RSK2 = RSK2 (Homo sapiens, UniProt P51812); assay: Kinase screen: MAPKAP-K1b/RSK2 assay
Description: (§1) Generally, the same procedure was used for all assays. Since the total assay volume was 25.5 microliters, 0.5 microliters of inhibitors at 51× assay concentration were added to the plates before any other addition.
(§2) The basic procedure was to add 0.5 microliters inhibitor/control in DMSO to plate. Fifteen microliters of enzyme/substrate/buffer mix were added and incubated for 5 min. Ten microliters MgATP at the relevant concentration were added and incubated for 30 min. The assay was stopped by adding 5 microliters of 3% orthophosphoric acid. The assay was transferred to a p81 filter plate and read in a scintillation counter of 30 sec/well. Note that this assay procedure was not followed for MKK1, which instead involved a two-step assay, and PKC alpha, which required the addition of lipid vesicles.
MAPKAP-K1b/RSK2 assay: MAPKAP-K1b (5-20 mU diluted in 20 mM MOPS pH 7.5, 1 mM EDTA, 0.01% Brij35, 5% glycerol, 0.1% b-mercaptoethanol, 1 mg/ml BSA) was assayed against substrate peptide ([…]) (SEQ ID NO: 3) in a final volume of […] containing 50 mM Na-b-glycerophosphate (pH 7.5), 0.5 mM EDTA, 30 μM substrate peptide, 10 mM magnesium acetate and 0.05 mM [33P-g-ATP] (50-1000 cpm/pmole) and incubated for 30 min at room temperature. Assays were stopped by addition of 5 μl of 0.5 M (3%) orthophosphoric acid and then harvested onto P81 Unifilter plates with a wash buffer of 50 mM orthophosphoric acid.

IKKβ = molecular target: T1, IKKβ (Homo sapiens, UniProt O14920); assay: Kinase screen: IKKb assay
T1 sequence (O14920 1-756): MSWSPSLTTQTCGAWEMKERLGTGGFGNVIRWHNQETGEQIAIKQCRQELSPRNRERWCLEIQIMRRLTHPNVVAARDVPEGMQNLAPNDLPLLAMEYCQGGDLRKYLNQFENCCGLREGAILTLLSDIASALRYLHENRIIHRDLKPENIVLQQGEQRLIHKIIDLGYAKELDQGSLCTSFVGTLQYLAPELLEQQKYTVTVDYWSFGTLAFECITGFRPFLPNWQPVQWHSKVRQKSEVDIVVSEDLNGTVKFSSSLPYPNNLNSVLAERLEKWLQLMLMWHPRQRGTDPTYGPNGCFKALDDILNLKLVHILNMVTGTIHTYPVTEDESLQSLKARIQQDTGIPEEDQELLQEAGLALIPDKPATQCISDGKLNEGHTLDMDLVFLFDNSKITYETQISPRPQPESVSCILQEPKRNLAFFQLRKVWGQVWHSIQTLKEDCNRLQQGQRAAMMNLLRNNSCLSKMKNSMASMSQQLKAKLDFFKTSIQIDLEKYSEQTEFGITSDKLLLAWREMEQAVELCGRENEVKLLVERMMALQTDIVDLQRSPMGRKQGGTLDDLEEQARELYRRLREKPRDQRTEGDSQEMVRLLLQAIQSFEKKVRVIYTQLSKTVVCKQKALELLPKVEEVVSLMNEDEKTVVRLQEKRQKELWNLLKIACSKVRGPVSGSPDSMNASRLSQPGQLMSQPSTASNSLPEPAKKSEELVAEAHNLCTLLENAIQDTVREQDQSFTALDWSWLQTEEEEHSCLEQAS
Description: as §1, §2
IKKb assay: 5-20 mU of IKKb (diluted in 50 mM Tris (pH 7.5), 0.1 mM EGTA, 1 mg/ml BSA, 0.1%, b-Mercaptoethanol) was assayed against substrate peptide ([…]) (SEQ ID NO: 20) in a final volume of 25.5 μl containing 50 mM Tris (pH 7.5), 0.1 mM EGTA, 0.1%, b-Mercaptoethanol, 300 μM substrate peptide, 10 mM magnesium acetate and 0.005 mM [33P-g-ATP] (500-1000 cpm/pmole) and incubated for 30 mins at room temperature. Assays were stopped by addition of 5 µl of 0.5M (3%) orthophosphoric acid. Assays were harvested onto P81 Unifilter plates using a wash buffer of 50 mM orthophosphoric acid.

MAPKAP-K2 = MAPKAP-K2 (Homo sapiens, UniProt P49137); assay: Kinase screen: MAPKAP-K2 assay
Chain of MAPKAP-K2 (P49137 whole entry, species assumed): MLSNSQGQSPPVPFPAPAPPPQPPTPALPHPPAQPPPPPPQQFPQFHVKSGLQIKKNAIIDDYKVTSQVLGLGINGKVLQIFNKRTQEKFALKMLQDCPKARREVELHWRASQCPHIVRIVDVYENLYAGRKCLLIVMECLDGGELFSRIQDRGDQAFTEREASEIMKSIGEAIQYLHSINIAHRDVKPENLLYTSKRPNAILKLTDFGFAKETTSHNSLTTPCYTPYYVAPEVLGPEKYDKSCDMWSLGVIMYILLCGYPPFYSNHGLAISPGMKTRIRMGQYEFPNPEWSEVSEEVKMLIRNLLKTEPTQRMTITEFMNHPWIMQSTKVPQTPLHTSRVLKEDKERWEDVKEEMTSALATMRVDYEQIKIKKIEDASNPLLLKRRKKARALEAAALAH
Description: as §1, §2
MAPKAP-K2 assay: MAPKAP-K2 (5-20 mU diluted in 20 mM MOPS pH 7.5, 1 mM EDTA, 0.01% Brij35, 5% glycerol, 0.1% b-mercaptoethanol, 1 mg/ml BSA) was assayed against […] (SEQ ID NO: 3) in a final volume of […] containing 50 mM Na-b-glycerophosphate pH 7.5, 0.5 mM EDTA, 30 μM substrate peptide, 10 mM magnesium acetate and 0.02 mM [33P-g-ATP] (50-1000 cpm/pmole) and incubated for 30 min at room temperature. Assays were stopped by addition of 5 μl of 0.5 M (3%) orthophosphoric acid and then harvested onto P81 Unifilter plates with a wash buffer of 50 mM orthophosphoric acid.

PKCα = PKCα (Homo sapiens, UniProt P17252); assay: Kinase screen: PKCa assay
Description: as §1, §2
PKCa assay: PKCa (5-20 mU diluted in 20 mM Hepes pH 7.4, 0.03% Triton X-100) was assayed against Histone H1 in the presence of PtdSerine and DAG (0.1 mg/ml. and 10 μg/ml) and 0.1 mM CaCl2. The assay was carried out in a final volume of 25.5 μl containing 20 mM Hepes pH 7.4, 0.03% Triton X-100, 0.1 mg/ml Histone H1, 10 mM magnesium acetate and 0.02 mM[33P-g-ATP] (50-1000 cpm/pmole) and incubated for 30 min at room temperature. Assays were stopped by addition of 5 μl of 0.5 M (3%) orthophosphoric acid and then harvested onto P81 Unifilter plates with a wash buffer of 50 mM orthophosphoric acid.
PtdSer/DAG preparation: PtdSer stock was 10 mg/ml in MeOH/Chloroform (1:2). The required amount was dried down and re-suspended in an appropriate volume of 10 mM Hepes pH 7.4, vortexed, and briefly sonicated (2×10^−15 seconds at 10-15 seconds apart). DAG stock was 10 mg/ml in MeOH/chloroform (1:2). The required amount was dried down and sonicated PtdSer solution was added, vortexed and sonicated.

[1] = 10 micromolar compound, read-out: mean activity remaining (as a percentage of the original activity), RSK2
[2] = 10 micromolar compound, read-out: mean activity remaining (as a percentage of the original activity), IKKb
[3] = 10 micromolar compound, read-out: mean activity remaining (as a percentage of the original activity), MAPKAP-K2
[4] = 10 micromolar compound, read-out: mean activity remaining (as a percentage of the original activity), PKCa

Chain of RSK2 (P51812 whole entry, species assumed): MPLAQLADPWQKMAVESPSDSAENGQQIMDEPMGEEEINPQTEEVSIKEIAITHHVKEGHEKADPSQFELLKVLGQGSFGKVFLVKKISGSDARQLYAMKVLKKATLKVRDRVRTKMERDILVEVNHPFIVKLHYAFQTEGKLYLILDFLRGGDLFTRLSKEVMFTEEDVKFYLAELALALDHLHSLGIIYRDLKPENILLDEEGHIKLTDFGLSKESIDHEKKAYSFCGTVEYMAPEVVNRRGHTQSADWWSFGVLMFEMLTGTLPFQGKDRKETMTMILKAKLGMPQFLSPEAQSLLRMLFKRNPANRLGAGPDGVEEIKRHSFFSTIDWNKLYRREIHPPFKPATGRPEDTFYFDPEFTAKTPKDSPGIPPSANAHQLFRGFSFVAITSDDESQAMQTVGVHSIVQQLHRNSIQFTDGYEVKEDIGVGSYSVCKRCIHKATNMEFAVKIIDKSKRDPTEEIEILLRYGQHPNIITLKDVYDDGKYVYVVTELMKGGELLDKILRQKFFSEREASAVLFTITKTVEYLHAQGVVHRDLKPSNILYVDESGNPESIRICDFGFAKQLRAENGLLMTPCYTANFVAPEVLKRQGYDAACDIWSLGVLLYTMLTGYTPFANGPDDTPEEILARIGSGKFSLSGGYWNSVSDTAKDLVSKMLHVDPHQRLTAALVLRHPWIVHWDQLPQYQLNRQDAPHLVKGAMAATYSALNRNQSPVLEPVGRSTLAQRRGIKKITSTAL

SMILES | remaining activity at 10 µM (RSK2; [1]) [%] | remaining activity at 10 µM (IKKβ; [2]) [%] | remaining activity at 10 µM (MAPKAP-K2; [3]) [%] | remaining activity at 10 µM (PKCα; [4]) [%] | also measured
CC(C)c1cnn2c(NCc3ccccc3)cc(NCCCCCCCN)nc12 [BS-181] | – | – | – | – | remaining activity at 10 µM (RSK2; RSK2, 10 μM, read-out: Mean Remaining Enzyme Activity (%)): 55%; remaining activity at 10 µM (IKKβ; IKKβ, 10 μM, read-out: Mean Remaining Enzyme Activity (%)): 96%; remaining activity at 10 µM (MAPKAP-K2; MAPKAP-K2, 10 μM, read-out: Mean Remaining Enzyme Activity (%)): 88%; remaining activity at 10 µM (PKCα; PKCα, 10 μM, read-out: Mean Remaining Enzyme Activity (%)): 98%
C=C[C@H](CO)Nc1cc(NCc2ccccc2)n2ncc(C(C)C)c2n1 [ICEC0065] | 84 | 81 | 111 | 101 | –
CC[C@H](CO)Nc1cc(NCc2ccccc2)n2ncc(C(C)C)c2n1 [ICEC0067] | 76 | 84 | 110 | 93 | –
CC(C)c1cnn2c(NCc3ccccc3)cc(N[C@@H](CO)[C@H](O)CO)nc12 [ICEC0318, (3S)-3-(7-(Benzylamino)-3-isopropylpyrazolo[1,5-a]pyrimidin-5-ylamino)butane-1,2,4-triol] | 90 | 80 | 111 | 96 | –
CC(C)c1cnn2c(NCc3ccccc3F)cc(NCCCCCN)nc12 [ICEC-0232] | – | – | – | – | mean activity remaining (as a percentage of the original activity), RSK2 (RSK2; 10 micromolar compound): 19%; mean activity remaining (as a percentage of the original activity), IKKb (IKKβ; 10 micromolar compound): 84%; mean activity remaining (as a percentage of the original activity), MAPKAP-K2 (MAPKAP-K2; 10 micromolar compound): 88%; mean activity remaining (as a percentage of the original activity), PKCa (PKCα; 10 micromolar compound): 80%
